Test results: patent US9980943B2, “Methods of treating muscular dystrophy” (BOARD OF REGENTS OF THE NEVADA SYSTEM OF HIGHER EDUCATION, …, priority 2013, dated 2018)

Assays:
Assay type in all cases: cell-based, mouse
[1] = test system: α7 integrin (LacZ reporter in α7+/LacZ myotubes); assay: Myotube α7 integrin FDG assay (Burkin assay in myotubes, 96-well); conditions: myotubes
[2] = test system: β-galactosidase in CMV-LacZ C2C12 myotubes; assay: CMV-LacZ secondary screen in C2C12 myotubes (β-Gal stabilizing assay); conditions: for CMV-LACZ in Myotubes (β-galactosidase activity relative to DMSO): CMV-LacZ C2C12 myotubes, 96-well format
Method in brief: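 First, C2C12 myoblasts were transfected with a linearized CMV-LACZ vector and clonal lines selected by FDG β-gal assay. Then cells were exposed to compounds at 0.5, 1, 5, 10, 20 and 40 μM in 96-well format, two replicates each, and β-gal measured.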

[3] = test system: α7 integrin (LacZ reporter in α7βgal+/− myoblasts); assay: Myoblast α7+/LacZ integrin FDG assay (Burkin assay in myoblasts, 96-well); conditions: α7+/LacZ myoblasts, 96-well
[4] = 5 uM, C2C12 CMV-LacZ myotubes, fold relative to DMSO
[5] = 10 uM, C2C12 CMV-LacZ myotubes, fold relative to DMSO
[6] = 20 uM, C2C12 CMV-LacZ myotubes, fold relative to DMSO
[7] = 40 uM, C2C12 CMV-LacZ myotubes, fold relative to DMSO

| Structure (SMILES) | CMV-LACZ in Myotubes, signal relative to DMSO [2, 4] | CMV-LACZ in Myotubes, signal relative to DMSO [2, 5] | CMV-LACZ in Myotubes, signal relative to DMSO [2, 6] | CMV-LACZ in Myotubes, signal relative to DMSO [2, 7] | Burkin Assay in Myotubes (signal relative to DMSO) ([1]; 0.5 uM) | Burkin Assay in Myotubes (signal relative to DMSO) ([1]; 1 uM) | Burkin Assay in Myotubes (signal relative to DMSO) ([1]; 5 uM) | Burkin Assay in Myotubes (signal relative to DMSO) ([1]; 10 uM) | Burkin Assay in Myotubes (signal relative to DMSO) ([1]; 20 uM) | Burkin Assay in Myotubes (signal relative to DMSO) ([1]; 40 uM) | CMV-LACZ in Myotubes (β-galactosidase activity relative to DMSO) ([2]; 5 uM) | CMV-LACZ in Myotubes (β-galactosidase activity relative to DMSO) ([2]; 10 uM) | CMV-LACZ in Myotubes (β-galactosidase activity relative to DMSO) ([2]; 20 uM) | CMV-LACZ in Myotubes (β-galactosidase activity relative to DMSO) ([2]; 40 uM) | Burkin Assay in Myoblasts, value relative to DMSO ([3]; 0.5 uM) | Burkin Assay in Myoblasts, value relative to DMSO ([3]; 1 uM) | Burkin Assay in Myoblasts, value relative to DMSO ([3]; 5 uM) | Burkin Assay in Myoblasts, value relative to DMSO ([3]; 10 uM) | Burkin Assay in Myoblasts, value relative to DMSO ([3]; 20 uM) | Burkin Assay in Myoblasts, value relative to DMSO ([3]; 40 uM) | also measured |
| --- | --- | --- | --- | --- | --- | --- | --- | --- | --- | --- | --- | --- | --- | --- | --- | --- | --- | --- | --- | --- | --- |
| CS(=O)(=O)c1ccc(Cl)c(NC(=O)CSc2nncn2-c2ccccc2)c1 [MLS001177364-01] | 1.262 | 0.9578 | 1.053 | 0.9743 | – | – | – | – | – | – | – | – | – | – | – | – | – | – | – | – | Burkin Assay in Myotubes, α7 integrin LacZ reporter signal relative to DMSO ([1]; 0.5 uM): 1.036; Burkin Assay in Myotubes, α7 integrin LacZ reporter signal relative to DMSO ([1]; 1 uM): 0.9519; Burkin Assay in Myotubes, α7 integrin LacZ reporter signal relative to DMSO ([1]; 5 uM): 1.235; Burkin Assay in Myotubes, α7 integrin LacZ reporter signal relative to DMSO ([1]; 10 uM): 1.213; Burkin Assay in Myotubes, α7 integrin LacZ reporter signal relative to DMSO ([1]; 20 uM): 1.125; Burkin Assay in Myotubes, α7 integrin LacZ reporter signal relative to DMSO ([1]; 40 uM): 0.6717; Burkin Assay in Myoblasts, signal relative to DMSO ([3]; 0.5 uM): 1.082; Burkin Assay in Myoblasts, signal relative to DMSO ([3]; 1 uM): 0.9869; Burkin Assay in Myoblasts, signal relative to DMSO ([3]; 5 uM): 0.9655; Burkin Assay in Myoblasts, signal relative to DMSO ([3]; 10 uM): 0.9015; Burkin Assay in Myoblasts, signal relative to DMSO ([3]; 20 uM): 1.005; Burkin Assay in Myoblasts, signal relative to DMSO ([3]; 40 uM): 0.8386 |
| Cc1ccc(C2Nc3cccc4cccc(c34)N2)s1 [MLS000591198-01] | – | – | – | – | 1.017 | 0.881 | 1 | 0.8548 | 0.9852 | 0.7014 | 0.9681 | 0.9319 | 0.8338 | 0.4531 | 1.006 | 0.9251 | 1.037 | 0.9593 | 0.7765 | 0.473 | – |
| O=C(NCCc1ccc(F)cc1)N[C@@H](Cc1ccccc1)C(=O)O [MLS001214704-01] | – | – | – | – | – | – | – | – | – | – | – | – | – | – | – | – | – | – | – | – | fold induction at 0.5 µM ([1]; Mus musculus, Myotube, 0.5 uM, read-out: Burkin Assay in Myotubes (signal relative to DMSO)): 0.976; fold induction at 1 µM ([1]; Mus musculus, Myotube, 1 uM, read-out: Burkin Assay in Myotubes (signal relative to DMSO)): 1.11; fold induction at 5 µM ([1]; Mus musculus, Myotube, 5 uM, read-out: Burkin Assay in Myotubes (signal relative to DMSO)): 1.07; fold induction at 10 µM ([1]; Mus musculus, Myotube, 10 uM, read-out: Burkin Assay in Myotubes (signal relative to DMSO)): 1.11; fold induction at 20 µM ([1]; Mus musculus, Myotube, 20 uM, read-out: Burkin Assay in Myotubes (signal relative to DMSO)): 1.06; fold induction at 40 µM ([1]; Mus musculus, Myotube, 40 uM, read-out: Burkin Assay in Myotubes (signal relative to DMSO)): 1.16; fold induction at 5 µM ([2]; Mus musculus, C2C12, read-out: CMV-LACZ in Myotubes, signal relative to DMSO, 5 uM, C2C12 CMV-LacZ myotubes, fold relative to DMSO): 0.885; fold induction at 10 µM ([2]; Mus musculus, C2C12, read-out: CMV-LACZ in Myotubes, signal relative to DMSO, 10 uM, C2C12 CMV-LacZ myotubes, fold relative to DMSO): 1.28; fold induction at 20 µM ([2]; Mus musculus, C2C12, read-out: CMV-LACZ in Myotubes, signal relative to DMSO, 20 uM, C2C12 CMV-LacZ myotubes, fold relative to DMSO): 0.933; fold induction at 40 µM ([2]; Mus musculus, C2C12, read-out: CMV-LACZ in Myotubes, signal relative to DMSO, 40 uM, C2C12 CMV-LacZ myotubes, fold relative to DMSO): 0.914; fold induction at 0.5 µM ([3]; Mus musculus, Myoblast, 48 h, 0.5 uM, read-out: Burkin Assay in Myoblasts, value relative to DMSO): 1.11; fold induction at 1 µM ([3]; Mus musculus, Myoblast, 48 h, 1 uM, read-out: Burkin Assay in Myoblasts, value relative to DMSO): 1.3; fold induction at 5 µM ([3]; Mus musculus, Myoblast, 48 h, 5 uM, read-out: Burkin Assay in Myoblasts, value relative to DMSO): 1.08; fold induction at 10 µM ([3]; Mus musculus, Myoblast, 48 h, 10 uM, read-out: Burkin Assay in Myoblasts, value relative to DMSO): 1.19; fold induction at 20 µM ([3]; Mus musculus, Myoblast, 48 h, 20 uM, read-out: Burkin Assay in Myoblasts, value relative to DMSO): 0.985; fold induction at 40 µM ([3]; Mus musculus, Myoblast, 48 h, 40 uM, read-out: Burkin Assay in Myoblasts, value relative to DMSO): 1.05 |
| O=C(Nc1cc(Br)ccc1O)C1CC(c2ccccc2Cl)=NO1 (stereo not shown) [MLS001202627-01] | – | – | – | – | 0.9687 | 0.7692 | 1.025 | 0.8124 | 0.9394 | 0.2335 | 0.9234 | 0.9555 | 0.9345 | 0.735 | 1.172 | 1.081 | 0.9923 | 0.7739 | 0.5427 | 0.2179 | – |
| OC1(c2ccccc2)C/C(=N\n2cnnc2)C=C1c1ccccc1 (stereo not shown) [MLS000081838-01] | 0.9175 | 0.8889 | 1.018 | 0.9697 | 0.7425 | 1.018 | 0.9002 | 0.8704 | 1.225 | 1.036 | – | – | – | – | 1.0627 | 1.047 | 0.9611 | 0.9253 | 0.9822 | 0.9234 | – |
| CCNC(=O)COC(=O)c1cc(-c2ccco2)nc2ccccc12 [MLS000772580-01] | 0.8986 | 1.0933 | 1.029 | 1.088 | 0.851 | 0.8999 | 1.323 | 0.9474 | 0.9413 | 0.8535 | – | – | – | – | 0.8487 | 0.9736 | 0.8554 | 0.8513 | 0.7938 | 0.7251 | – |
| CS(=O)(=O)N(Cc1ccc(C(=O)NC2CCCC2)cc1)c1ccccc1 [MLS000714175-01] | – | – | – | – | 1.086 | 1.061 | 1.131 | 1.013 | 1.119 | 1.022 | 0.9319 | 1.097 | 1.124 | 0.971 | 0.5383 | 0.975 | 1.1625 | 1.06 | 0.9936 | 0.9626 | – |
